Data: paper PMC6689897, “Drugging an undruggable pocket on KRAS” (Proceedings of the National Academy of Sciences of the …, 2019)

Target: KRAS (Homo sapiens, UniProt P01116, G12D)
Assay: Alpha Screen PPI assays, summary over KRAS interactions (SOS1, CRAF, PI3Kα)
Format: biochemical
Conditions: interaction not given
Source text: Using biochemical assays, we investigated whether 1 inhibited 3 of the 4 PPIs important for KRAS cycling (Fig. 5 A, i–iii). Namely, 1) GDP-KRAS interaction with the catalytic site of SOS ([33]), 2) GTP-KRAS interaction with the allosteric site of SOS ([34]), and 3) GTP-KRAS interaction with downstream effectors (CRAF and PI3Kα). We were unable to establish a biochemical assay for the fourth intervention point, namely, 4) GTP-KRAS interaction with its GAPs (Fig. 5 A, iv). As a reference compound for these assays, we used the KRAS^G12C-specific covalent inhibitor ARS-1620 ([35]). Compound 1 inhibited all 3 RAS cycle intervention points (1 to 3) in a dose-dependent manner (Fig. 5 B–E) in the range of 100 to 770 nM (SI Appendix, Table S6).
217 The coordinates and structure factors of the structures have been deposited at the
218 Protein Data Bank with the accession codes PDB Code 6GJ5, 6GJ6, 6GJ7, 6GJ8.
221 Measurements of various protein–protein interactions were performed using the Alpha
222 Screen technology developed by Perkin Elmer. Recombinant RAS proteins (H-, N-, K-
223 RAS variants; all KRAS variants are based on KRAS isoform 4B (uniprot id P01116-2);
224 KRAS (G12D) 1-169, N-terminal 6His-tag, C-terminal avi-tag was from Xtal
225 BioStructures, Inc., KRAS (G12C) 1-169, C-terminal avi-tag, biotinylated, mutations:
226 C51S, C80L, C118S, NRAS(wt) 1-172, C-terminal avi-tag, biotinylated; HRAS(wt) 1-
227 166, C-terminal avi-tag, biotinylated). Biotinylation was performed in vitro with
228 recombinant BirA biotin-protein ligase as recommended by the manufacturer (Avidity
229 LLC, Aurora, Colorado, USA). Interacting proteins such as SOS1 (564-1049, N-terminal
230 GST-tag, TEV cleavage site), cRaf (1-303, N-terminal GST-tag, TEV cleavage site) and
231 PI3KA- RBD (160-317, N-term-HIS_GST-tag) were expressed as glutathione S […]
245 for 60 min in the dark at room temperature. Single oxygen induced fluorescence was
246 measured at an Enspire multimode plate reader (Perkin Elmer) according to the
247 manufacturer’s recommendations. Data were analyzed using the GraphPad Prism data […]

KRAS, sequence (P01116 1-169 G12D): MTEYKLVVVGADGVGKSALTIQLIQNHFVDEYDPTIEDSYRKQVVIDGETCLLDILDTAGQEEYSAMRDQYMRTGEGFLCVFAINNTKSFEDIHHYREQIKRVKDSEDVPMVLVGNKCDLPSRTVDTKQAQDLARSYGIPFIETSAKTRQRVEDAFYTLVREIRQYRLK

Cn1cnc(Cn2ccc3ccc(CNCc4[nH]c5ccccc5c4[C@H]4NC(=O)c5ccc(O)cc54)cc32)c1 [Compound 1]
IC50: 450 nM
